Where a name gives a salt, the structure may show the parent alone. Bounds are passed on as bounds.

In the case of `CCOCc1nc2c(N)nc3cc(-c4ccncc4)ccc3c2n1CC(C)C` [Example 116, 2-Ethoxymethyl-1-(2-methylpropyl)-(7-pyridin-4-yl)-1H-imidazo[4,5-c]quinolin-4-amine], the melting point (in general, the temperature, or range, at which the solid turns liquid) was 211 to 213 °C.
In turn, `CCc1nc2c(N)nc3cc(-c4cccnc4)ccc3c2n1CC1CCN(S(C)(=O)=O)CC1` (hydrate or solvate) [Example 406, 2-Ethyl-1-{[1-(methanesulfonyl)piperidin-4-yl]methyl}-7-(pyridin-3-yl)-1H-imidazo[4,5-c]quinolin-4-amine] had a melting point of 228 to 229 °C.
Under `CCOCc1nc2c(N)nc3cc(-c4ccccc4)ccc3c2n1CC1CCN(C(=O)OC(C)(C)C)CC1` [Example 191, tert-Butyl 4-[(4-amino-2-ethoxymethyl-7-phenyl-1H-imidazo[4,5-c]quinolin-1-yl)methyl]piperidine-1-carboxylate] stands 194 to 195 °C; under `CCOCc1nc2c(N)nc3cc(-n4cccn4)ccc3c2n1CCCOC` [Example 472, 2-Ethloxymethyl-1-(3-methoxypropyl)-7-(pyrazol-1-yl)-1H-imidazo[4,5-c]quinolin-4-amine], 159 to 160 °C.
The value for `CCOCc1nc2c(N)nc3cc(-c4cncc(CO)c4)ccc3c2n1CC(C)C` [Example 115, {5-[4-Amino-2-ethoxymethyl-1-(2-methylpropyl)-1H-imidazo[4,5-c]quinolin-7-yl]pyridin-3-yl}methanol] was 211 to 212 °C; that for `CCOCc1nc2c(N)nc3cc(-c4ccccc4)ccc3c2n1CC1CCNCC1` [Example 192, 2-Ethoxymethyl-7-phenyl-1-(piperidin-4-ylmethyl)-1H-imidazo[4,5-c]quinolin-4-amine] was 142 to 143 °C.
The value for `CCOCc1nc2c(N)nc3cc(-c4cccnc4)ccc3c2n1CCCCS(=O)(=O)N(C)C` [Example 365, Dimethyl 4-[4-amino-2-ethoxymethyl-7-(pyridin-3-yl)-1H-imidazo[4,5-c]quinolin-1-yl]butane-1-sulfonamide] was 205 to 206 °C; that for `CCCc1nc2c(N)nc3cc(CCc4ccc5sc(C)nc5c4)ccc3c2n1CC(C)C` (as salt: HCl) [Example 457, 7-[2-(2-Methylbenzothiazol-5-yl)ethyl]-1-(2-methylpropyl)-2-propyl-1H-imidazo[4,5-c]quinolin-4-amine] was over 250 °C.
Molecule `CCOCc1nc2c(N)nc3ccc(CCc4ccccc4)cc3c2n1CC(C)(C)O` [Example 151, 1-(4-Amino-2-ethoxymethyl-8-phenethyl-1H-imidazo[4,5-c]quinolin-1-yl)-2-methylpropan-2-ol] yielded a melting point of 175 to 176 °C.
The value for `CCOCc1nc2c(N)nc3cc(-c4ccccc4)ccc3c2n1CC(C)(C)O` [Example 131, 1-(4-Amino-2-ethoxymethyl-7-phenyl-1H-imidazo[4,5-c]quinolin-1-yl)-2-methylpropan-2-ol] was 211 to 212 °C; that for `CCOCc1nc2c(N)nc3cc(-c4ccsc4)ccc3c2n1CC(C)C` [Example 9, 2-Ethoxymethyl-1-isobutyl-7-(thiophen-3-yl)-1H-imidazo[4,5-c]quinolin-4-amine] was 187 to 189 °C; that for `CCCc1nc2c(N)nc3cc(CCc4cccc(S(N)(=O)=O)c4)ccc3c2n1CC(C)C` [Example 456, 3-{2-[4-Amino-1-(2-methylpropyl)-2-propyl-1H-imidazo[4,5-c]quinolin-7-yl]ethyl}benzenesulfonamide] was 250 to 251 °C.
Under `CCCc1nc2c(N)nc3cc(-c4cncc(CO)c4)ccc3c2n1CC(C)(C)O` [Example 420, 1-[4-Amino-7-(5-hydroxymethylpyridin-3-yl)-2-propyl-1H-imidazo[4,5-c]quinolin-1-yl]-2-methylpropan-2-ol] stands 225 to 226 °C.
Take `COCc1nc2c(N)nc3cc(-c4ccc(OC)nc4)ccc3c2n1CC(C)(C)O` [Example 398, 1-[4-Amino-2-methoxymethyl-7-(6-methoxypyridin-3-yl)-1H-imidazo[4,5-c]quinolin-1-yl]-2-methylpropan-2-ol]: the melting point lay within 190 to 190.5 °C.
As to `CCOCc1nc2c(N)nc3cc(-c4cccc(CO)c4)ccc3c2n1CCCCN1CCCS1(=O)=O` [Example 156, (5-{4-Amino-1-[4-(1,1-dioxidoisothiazolidin-2-yl)butyl]-2-ethoxymethyl-1H-imidazo[4,5-c]quinolin-7-yl}phenyl)methanol], the melting point lay in the range of 158 to 161 °C.
Consider `CCOCc1nc2c(N)nc3cc(-c4cccnc4)ccc3c2n1CC1CCN(C(=O)C(C)C)CC1` (hydrate or solvate) [Example 179, 2-Ethoxymethyl-1-[(1-isobutyrylpiperidin-4-yl)methyl]-7-(pyridin-3-yl)-1H-imidazo[4,5-c]quinolin-4-amine], for which the melting point lay within 130 to 132 °C.
In turn, `COCCc1nc2c(N)nc3cc(-c4cncc(CO)c4)ccc3c2n1CC(C)C` [Example 146, {5-[4-Amino-2-(2-methoxyethyl)-1-(2-methylpropyl)-1H-imidazo[4,5-c]quinolin-7-yl]pyridin-3-yl}methanol] returned a melting point of 202 to 204 °C.
Under `COc1ccc(-c2ccc3nc(N)c4ncn(CC(C)C)c4c3c2)c(OC)c1` [Example 13, 8-(2,4-Dimethoxyphenyl)-1-isobutyl-1H-imidazo[4,5-c]quinolin-4-amine] stands 223 to 227 °C; under `CCOCc1nc2c(N)nc3ccc(C=Cc4ccccc4)cc3c2n1CC(C)(C)O` [Example 147, 1-(4-Amino-2-ethoxymethyl-8-styryl-1H-imidazo[4,5-c]quinolin-1-yl)-2-methylpropan-2-ol], 217 to 218 °C.
Under `COCc1nc2c(N)nc3cc(-c4cccnc4)ccc3c2n1CC(C)(C)O` [Example 396, 1-[4-Amino-2-methoxymethyl-7-(pyridin-3-yl)-1H-imidazo[4,5-c]quinolin-1-yl]-2-methylpropan-2-ol] stands 225 to 225.5 °C.
The value for `CCOCc1nc2c(N)nc3cc(-c4cccc(C(=O)N5CCOCC5)c4)ccc3c2n1CC(C)(C)O` [Example 130, {3-[4-Amino-2-ethoxymethyl-1-(2-hydroxy-2-methylpropyl)-1H-imidazo[4,5-c]quinolin-7-yl]phenyl}morpholin-4-ylmethanone] was 152 to 154 °C; that for `CCOCc1nc2c(N)nc3cc(-c4cccnc4)ccc3c2n1CCNS(C)(=O)=O` [Example 387, N-{2-[4-Amino-2-ethoxymethyl-7-(pyridin-3-yl)-1H-imidazo[4,5-c]quinolin-1-yl]ethyl}methanesulfonamide] was 233 to 235 °C; that for `COCCc1nc2c(N)nc3cc(-c4ccccc4)ccc3c2n1CCCN1CCCC1=O` [Example 206, 1-{3-[4-Amino-2-(2-methoxyethyl)-7-phenyl-1H-imidazo[4,5-c]quinolin-1-yl]propyl}pyrrolidin-2-one] was 187 to 191 °C.
`CCOCc1nc2c(N)nc3cc(-c4cccnc4)ccc3c2n1CCCCCS(=O)(=O)N(C)C` [Example 370, Dimethyl 5-[4-amino-2-ethoxymethyl-7-(pyridin-3-yl)-1H-imidazo[4,5-c]quinolin-1-yl]pentane-1-sulfonamide] displayed a melting point of 159 to 160 °C.
Take `CCOCc1nc2c(N)nc3cc(-c4cccnc4)ccc3c2n1CC1CCOCC1` (hydrate or solvate) [Example 479, 2-Ethoxymethyl-7-(pyridin-3-yl)-1-(tetrahydropyran-4-ylmethyl)-1H-imidazo[4,5-c]quinolin-4-amine]: the melting point lay within 116 to 121 °C.
Under `CC(C)(O)Cn1cnc2c(N)nc3cc(Cc4ccccc4)ccc3c21` [Example 431, 1-(4-Amino-7-benzyl-1H-imidazo[4,5-c]quinolin-1-yl)-2-methylpropan-2-ol] stands 228 to 229 °C; under `COCCc1nc2c(N)nc3cc(-c4cccnc4)ccc3c2n1CCCN1CCCC1=O` [Example 183, 1-{3-[4-Amino-2-(2-methoxyethyl)-7-(pyridin-3-yl)-1H-imidazo[4,5-c]quinolin-1-yl]propyl}pyrrolidin-2-one], 218 to 221 °C.
The value for `CCOCc1nc2c(N)nc3cc(-c4cccnc4)ccc3c2n1CCCCNC(=O)C1CCCC1` (hydrate or solvate) [Example 374, N-{4-[4-Amino-2-ethoxymethyl-7-(pyridin-3-yl)-1H-imidazo[4,5-c]quinolin-1-yl]butyl}cyclopentanecarboxamide] was 196 to 198 °C; that for `COCCc1nc2c(N)nc3cc(-c4cncc(CO)c4)ccc3c2n1CC(C)(C)O` [Example 141, 1-[4-Amino-7-(5-hydroxymethylpyridin-3-yl)-2-(2-methoxyethyl)-1H-imidazo[4,5-c]quinolin-1-yl]-2-methylpropan-2-ol] was 210 to 211 °C.
Molecule `CCCCc1nc2c(N)nc3cc(-c4ccccc4)ccc3c2n1CC(C)C` [Example 2, 2-Butyl-1-isobutyl-7-phenyl-1H-imidazo[4,5-c]quinolin-4-amine] gave a melting point of over 250 °C.
Take `COCCc1nc2c(N)nc3cc(-c4cccc(NS(C)(=O)=O)c4)ccc3c2n1CCCN1CCCC1=O` [Example 186, N-(3-{4-Amino-2-(2-methoxyethyl)-1-[3-(2-oxopyrrolidin-1-yl)propyl]-1H-imidazo[4,5-c]quinolin-7-yl}phenyl)methanesulfonamide]: the melting point was 210 to 213 °C.
Under `CCOCc1nc2c(N)nc3cc(-c4cccnc4)ccc3c2n1CC(C)C` [Example 113, 2-Ethoxymethyl-1-(2-methylpropyl)-7-(pyridin-3-yl)-1H-imidazo[4,5-c]quinolin-4-amine] stands 179.5 to 181.5 °C; under `CCOCc1nc2c(N)nc3ccc(-c4cccnc4)cc3c2n1CC(C)(C)O` [Example 148, 1-[4-Amino-2-ethoxymethyl-8-(pyridin-3-yl)-1H-imidazo[4,5-c]quinolin-1-yl]-2-methylpropan-2-ol], 222 to 223 °C; under `CCc1nc2c(N)nc3cc(-c4ccncc4)ccc3c2n1CC(C)(C)O` [Example 143, 1-[4-Amino-2-ethyl-7-(pyridin-4-yl)-1H-imidazo[4,5-c]quinolin-1-yl]-2-methylpropan-2-ol], over 250 °C.
